Laboratory results from patent US9796733B2, “Imidazo-pyrazine derivatives useful as soluble guanylate cyclase activators” (Merck Sharp & Dohme Corp., priority 2014, dated 2017).

How the values were obtained:
[1] = test system: Spontaneously hypertensive rats (SHR); experiment: Acute efficacy in spontaneously hypertensive rats (SHR): telemetry blood pressure lowering after a single oral dose; assay type: in vivo, rat
Procedure, shortened: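 Male SHR carrying aortic telemetry implants (14-day recovery) received a single oral gavage of compound or vehicle (10% transcutol/20% Cremophor/70% water). Conscious blood pressure was sampled 30 s every 10 min and averaged hourly; change was taken against the prior-day vehicle baseline, reported as maximum peak SBP decrease at a given PO dose (mpk).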

sGC α1/β1 heterodimer = biological target: T1, sGC α1/β1 heterodimer (Homo sapiens, UniProt Q02108+Q02153); experiment: Cell-based sGC functional assay (CASA assay): cGMP generation in CHO-K1/sGC cells, HTRF detection; details: for Emax: CHO-K1, percent activation relative to standard Compound A in CHO-K1/sGC cells, read-out: % Act.; for EC50: inflection point (IP) of cGMP generation in CHO-K1/sGC cells, 4P fit, activity expressed as percentage of Compound A
T1 construct: expressed in transfected cells; host or cells: CHO-K1 (clone #7, CHO-K1/sGC)
T1 sequence (Q02108 1-690): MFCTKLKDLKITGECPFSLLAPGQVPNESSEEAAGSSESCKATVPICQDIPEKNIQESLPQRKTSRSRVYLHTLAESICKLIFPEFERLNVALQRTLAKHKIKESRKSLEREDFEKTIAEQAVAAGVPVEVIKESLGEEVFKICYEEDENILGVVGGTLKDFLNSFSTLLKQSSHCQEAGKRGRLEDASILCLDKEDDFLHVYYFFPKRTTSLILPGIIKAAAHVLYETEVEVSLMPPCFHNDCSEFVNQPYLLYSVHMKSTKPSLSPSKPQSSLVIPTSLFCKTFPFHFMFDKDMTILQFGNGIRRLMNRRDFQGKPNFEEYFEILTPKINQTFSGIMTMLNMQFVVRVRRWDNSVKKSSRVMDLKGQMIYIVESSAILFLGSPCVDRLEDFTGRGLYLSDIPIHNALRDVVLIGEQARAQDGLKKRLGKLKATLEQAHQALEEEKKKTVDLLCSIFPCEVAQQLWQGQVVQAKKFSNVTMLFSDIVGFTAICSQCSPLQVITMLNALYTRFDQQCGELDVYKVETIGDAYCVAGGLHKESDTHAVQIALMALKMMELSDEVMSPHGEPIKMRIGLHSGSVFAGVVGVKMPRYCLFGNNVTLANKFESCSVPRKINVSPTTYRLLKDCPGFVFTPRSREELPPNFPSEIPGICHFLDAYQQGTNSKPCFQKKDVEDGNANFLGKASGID
T1 sequence (Q02153 1-619): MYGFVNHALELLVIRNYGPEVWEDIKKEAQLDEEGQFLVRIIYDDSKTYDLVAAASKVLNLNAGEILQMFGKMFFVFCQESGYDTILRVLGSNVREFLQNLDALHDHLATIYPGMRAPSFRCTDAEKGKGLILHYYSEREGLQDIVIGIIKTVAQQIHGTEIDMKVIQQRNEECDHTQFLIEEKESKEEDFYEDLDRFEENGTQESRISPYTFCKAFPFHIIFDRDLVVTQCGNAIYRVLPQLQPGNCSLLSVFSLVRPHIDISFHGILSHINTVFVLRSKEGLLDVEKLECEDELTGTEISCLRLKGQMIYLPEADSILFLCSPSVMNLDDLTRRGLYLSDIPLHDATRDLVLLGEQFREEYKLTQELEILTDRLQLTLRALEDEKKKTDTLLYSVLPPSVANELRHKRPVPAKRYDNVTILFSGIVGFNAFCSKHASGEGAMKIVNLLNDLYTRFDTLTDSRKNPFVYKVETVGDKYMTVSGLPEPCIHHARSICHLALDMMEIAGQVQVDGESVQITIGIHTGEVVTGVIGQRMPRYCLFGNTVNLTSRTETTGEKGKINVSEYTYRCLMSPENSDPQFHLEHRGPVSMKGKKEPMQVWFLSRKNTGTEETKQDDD
Procedure, shortened: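 Stable CHO-K1/sGC cells in EBSS buffer with 5 mM MgCl2, 0.05% BSA and 0.5 mM IBMX were incubated with compound (2.5% DMSO final) ±1 μM DETA-NO for 1 hr at 37° C. cGMP was measured by HTRF. Activation is expressed as % of reference HDA Compound A maximum, with IP and max fold induction from a 4P fit.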

Emax (sGC α1/β1 heterodimer) [%] | EC50 (sGC α1/β1 heterodimer) [nM] | SMILES | Maximum peak decrease of systolic blood pressure (SBP) in SHR, Cat. ([1]; P.O. 3.0 mpk) | Maximum peak decrease of systolic blood pressure (SBP) in SHR, Cat. ([1]; P.O. 0.3 mpk) | Maximum peak decrease of systolic blood pressure (SBP) in SHR, Cat. ([1]; P.O. 1.0 mpk)
78 | 252 | CC1(c2ccc(C(F)(F)F)cc2)C(=O)Nc2nc(-c3cn4ccnc4cn3)nc(N)c21 (stereo not drawn) [Example 143B, 4-amino-2-(imidazo[1,2-a]pyrazin-6-yl)-5-methyl-5-(4-(trifluoromethyl)phenyl)-5H-pyrrolo[2,3-d]pyrimidin-6(7H)-one] | B (Category B=SBP in SHRs 20-40 mmHg) |  | 
140 | 928 | CC1(c2ccc(Cl)cn2)C(=O)Nc2nc(-c3cn4ccnc4c(CCC(F)(F)F)n3)nc(N)c21 (stereo not drawn) [Example 201A, 4-amino-5-(5-chloropyridin-2-yl)-5-methyl-2-(8-(3,3,3-trifluoropropyl)imidazo[1,2-a]pyrazin-6-yl)-5H-pyrrolo[2,3-d]pyrimidin-6(7H)-one] | C (Category C=SBP in SHRs>40 mmHg) |  | 
97 | 40 | CC1(c2ccc(F)cn2)C(=O)Nc2nc(-c3cn4ccnc4c(CCCC(F)(F)F)n3)nc(N)c21 (stereo not drawn) [Example 210B, 4-amino-5-(5-fluoropyridin-2-yl)-5-methyl-2-(8-(4,4,4-trifluorobutyl)imidazo[1,2-a]pyrazin-6-yl)-5H-pyrrolo[2,3-d]pyrimidin-6(7H)-one] |  | A (Category A=SBP in SHRs<20 mmHg) | 
135 | 46 | CC(C)CCc1nc(-c2nc(N)c3c(n2)NC(=O)C3(C)c2ccc(F)cn2)cn2ccnc12 (stereo not drawn) [Example 11B, 4-amino-5-(5-fluoropyridin-2-yl)-2-(8-isopentylimidazo[1,2-a]pyrazin-6-yl)-5-methyl-5H-pyrrolo[2,3-d]pyrimidin-6(7H)-one] |  |  | B (Category B=SBP in SHRs 20-40 mmHg)
105 | 27 | CC1(c2ccc(OC(F)(F)F)cc2)C(=O)Nc2nc(-c3cn4ccnc4c(CCC(F)(F)C(F)(F)F)n3)nc(N)c21 (stereo not drawn) [Example 234B, 4-amino-5-methyl-2-(8-(3,3,4,4,4-pentafluorobutyl)imidazo [1,2-a]pyrazin-6-yl)-5-(4-(trifluoromethoxy)phenyl)-5H-pyrrolo[2,3-d]pyrimidin-6(7H)-one] |  | A (Category A=SBP in SHRs<20 mmHg) | 
120 | 55 | CC1(c2ccc(Cl)cc2)C(=O)Nc2nc(-c3cn4ccnc4c(CCC(F)(F)F)n3)nc(N)c21 (stereo not drawn) [Example 182A, 4-amino-5-(4-chlorophenyl)-5-methyl-2-(8-(3,3,3-trifluoropropyl)imidazo[1,2-a]pyrazin-6-yl)-5H-pyrrolo[2,3-d]pyrimidin-6(7H)-one] |  |  | B (Category B=SBP in SHRs 20-40 mmHg)
119 | 91 | CC1(C)C(=O)Nc2nc(-c3cn4ccnc4c(Cc4ccccc4)n3)nc(N)c21 [Example 76, 4-amino-2-(8-benzylimidazo[1,2-a]pyrazin-6-yl)-5,5-dimethyl-5H-pyrrolo[2,3-d]pyrimidin-6(7H)-one] |  |  | B (Category B=SBP in SHRs 20-40 mmHg)
126 | 253 | Nc1nc(-c2cn3ccnc3c(CCCC(F)(F)F)n2)nc2c1C(c1ccc(Cl)cn1)(C1CC1)C(=O)N2 (stereo not drawn) [Example 218B, 4-amino-5-(5-chloropyridin-2-yl)-5-cyclopropyl-2-(8-(4,4,4-trifluorobutyl)imidazo[1,2-a]pyrazin-6-yl)-5H-pyrrolo[2,3-d]pyrimidin-6(7H)-one] |  |  | C (Category C=SBP in SHRs>40 mmHg)
66 | 163 | CCC1(c2ccc(Br)cc2)C(=O)Nc2nc(-c3cn4ccnc4c(CCC(F)(F)F)n3)nc(N)c21 (stereo not drawn) [Example 197A, 4-amino-5-(4-bromophenyl)-5-ethyl-2-(8-(3,3,3-trifluoropropyl)imidazo[1,2-a]pyrazin-6-yl)-5H-pyrrolo[2,3-d]pyrimidin-6(7H)-one] | B (Category B=SBP in SHRs 20-40 mmHg) |  | 
124 | 894 | CCc1nc(-c2nc(N)c3c(n2)NC(=O)C3(C)c2ccc(Cl)cc2)cn2ccnc12 (single isomer, unassigned) [Example 1A, 4-Amino-5-(4-chlorophenyl)-2-(8-ethylimidazo[1,2-a]pyrazin-6-yl)-5-methyl-5H-pyrrolo[2,3-d]pyrimidin-6(7H)-one] |  |  | B (Category B=SBP in SHRs 20-40 mmHg)
141 | 30 | CCCCc1nc(-c2nc(N)c3c(n2)NC(=O)C3(c2ccc(Cl)cc2)C2CC2)cn2ccnc12 (stereo not drawn) [Example 332B, 4-amino-2-(8-butylimidazo[1,2-a]pyrazin-6-yl)-5-(4-chlorophenyl)-5-cyclopropyl-5H-pyrrolo[2,3-d]pyrimidin-6(7H)-one] |  | B (Category B=SBP in SHRs 20-40 mmHg) | 
93 | 16 | CCCCc1nc(-c2nc(N)c3c(n2)NC(=O)C3(c2ccc(Cl)c(F)c2)C2CC2)cn2ccnc12 (stereo not drawn) [Example 329A, 4-amino-2-(8-butylimidazo[1,2-a]pyrazin-6-yl)-5-(4-chloro-3-fluorophenyl)-5-cyclopropyl-5H-pyrrolo[2,3-d]pyrimidin-6(7H)-one] |  | B (Category B=SBP in SHRs 20-40 mmHg) | 
76 | 33 | CC1(c2ccc(Cl)cc2)C(=O)Nc2nc(-c3cn4ccnc4c(CC4CCC4)n3)nc(N)c21 (stereo not drawn) [Example 118A, 4-amino-5-(4-chlorophenyl)-2-(8-(cyclobutylmethyl)imidazo [1,2-a]pyrazin-6-yl)-5-methyl-5H-pyrrolo[2,3-d]pyrimidin-6(7H)-one] |  | C (Category C=SBP in SHRs>40 mmHg) | 
113 | 111 | CC(C)CCc1nc(-c2nc(N)c3c(n2)NC(=O)C3(C)c2ccc(Cl)cc2)cn2ccnc12 (stereo not drawn) [Example 14A, 4-amino-5-(4-chlorophenyl)-2-(8-isopentylimidazo[1,2-a]pyrazin-6-yl)-5-methyl-5H-pyrrolo[2,3-d]pyrimidin-6(7H)-one] |  |  | C (Category C=SBP in SHRs>40 mmHg)
120 | 85 | CC1(c2ccc(F)cc2)C(=O)Nc2nc(-c3cn4cc(C(F)(F)F)nc4c(Cc4ccccc4)n3)nc(N)c21 (stereo not drawn) [Example 154A, 4-amino-2-(8-benzyl-2-(trifluoromethyl)imidazo[1,2-a]pyrazin-6-yl)-5-(4-fluorophenyl)-5-methyl-5H-pyrrolo[2,3-d]pyrimidin-6(7H)-one] |  |  | A (Category A=SBP in SHRs<20 mmHg)
60 | 17 | CC1(c2ccccc2)C(=O)Nc2nc(-c3cn4ccnc4c(CCC(F)(F)C(F)(F)F)n3)nc(N)c21 (stereo not drawn) [Example 232B, 4-amino-5-methyl-2-(8-(3,3,4,4,4-pentafluorobutyl)imidazo [1,2-a]pyrazin-6-yl)-5-phenyl-5H-pyrrolo[2,3-d]pyrimidin-6(7H)-one] |  |  | C (Category C=SBP in SHRs>40 mmHg)
107 | 131 | Nc1nc(-c2cn3ccnc3c(CCCC(F)(F)F)n2)nc2c1C(c1ccc(OC(F)(F)F)cc1)(C1CC1)C(=O)N2 (stereo not drawn) [Example 347A, 4-amino-5-cyclopropyl-2-(8-(4,4,4-trifluorobutyl)imidazo[1,2-a]pyrazin-6-yl)-5-(4-(trifluoromethoxy)phenyl)-5H-pyrrolo[2,3-d]pyrimidin-6(7H)-one] |  |  | B (Category B=SBP in SHRs 20-40 mmHg)
